Test results: patent US6790540B2, “Organic electroluminescent element material and organic electroluminescent element” (Nippon Steel Chemical Co., Ltd., priority 2000, dated 2004)

What was measured:
[1] = Solubility (wt %) of compounds in chloroform and toluene; assay type: physicochemical; set-up: key: ◯: ∘, completely soluble; Δ, a slight amount remaining insoluble; X, a considerable amount remaining insoluble; settings: for Solubility, Chloroform 0.1% soln. / Solubility, Toluene 0.1% soln.: 0.1% soln. (wt %); for Solubility, Chloroform 1% soln. / Solubility, Toluene 1% soln.: 1% soln. (wt %); for Solubility, Chloroform 5% soln. / Solubility, Toluene 5% soln.: 5% soln. (wt %); for Solubility, Chloroform 10% soln. / Solubility, Toluene 10% soln.: 10% soln. (wt %)
Excerpt: The symbols in the table stand for the following: ∘, completely soluble; Δ, a slight amount remaining insoluble; X, a considerable amount remaining insoluble.

[2] = Maximum PL wavelength in chloroform; assay type: physicochemical; settings: in chloroform (Compound B: 0.1 mM, excitation 350 nm)
Experimental: Next, 5.0 g (0.016 mole) of Compound J, 2.12 g (0.016 mole) of zinc chloride and 4.74 g (0.047 mole) of triethylamine were suspended in 30 ml of ethanol and allowed to react at room temperature. After 3 hours, the separated yellow powder was filtered, washed with ethanol, and purified by column chromatography to give […] (90.0%) of Compound B as yellow crystals. The maximum PL wavelength of Compound B in chloroform was 509 nm (concentration, 0.1 mM; solvent, CHCl3; excitation, 350 nm).

For c1cnc2c([O][Al]([O]c3cccc4cccnc34)[O]c3cccc4cccnc34)cccc2c1 [Alq3, aluminum-8-hydroxyquinoline complex], the “Solubility, Chloroform 0.1% soln.” value [1] was “Δ”, the “Solubility, Chloroform 1% soln.” value [1] was “X” and the “Solubility, Chloroform 5% soln.” value [1] was “X”. The “Solubility, Chloroform 10% soln.” value [1] was “X”, the “Solubility, Toluene 0.1% soln.” value [1] was “X” and the “Solubility, Toluene 1% soln.” value [1] was “X”. For the same molecule, the “Solubility, Toluene 5% soln.” value [1] was “X” and the “Solubility, Toluene 10% soln.” value [1] was “X”.

With CCCCCCCCS(=O)(=O)[N-]c1ccccc1-c1nc2ccccc2o1.CCCCCCCCS(=O)(=O)[N-]c1ccccc1-c1nc2ccccc2o1.[Zn+2] [Compound 6a, zinc bis-2-(2-(n-octylsulfonamido)phenyl)benzoxazolate] the “Solubility, Chloroform 0.1% soln.” value [1] was “◯”, the “Solubility, Chloroform 1% soln.” value [1] was “◯” and the “Solubility, Chloroform 5% soln.” value [1] was “◯”. For the same molecule, the “Solubility, Chloroform 10% soln.” value [1] was “◯”, the “Solubility, Toluene 0.1% soln.” value [1] was “◯” and the “Solubility, Toluene 1% soln.” value [1] was “◯”. The “Solubility, Toluene 5% soln.” value [1] was “Δ” and the “Solubility, Toluene 10% soln.” value [1] was “X”.

With CCCCCCCCS(=O)(=O)[N-]c1cccc2cccnc12.CCCCCCCCS(=O)(=O)[N-]c1cccc2cccnc12.[Zn+2] [Compound B, zinc bis-8-(n-octylsulfonamido)quinolinate] the “maximum PL wavelength” value [2] was 509 nm.

For CS(=O)(=O)[N-]c1cccc2cccnc12.CS(=O)(=O)[N-]c1cccc2cccnc12.[Zn+2] [Compound M, Zinc bis-8-(methylsulfonamido)quinolinate], the “maximum PL wavelength” value [2] was 505 nm, the “Solubility, Chloroform 0.1% soln.” value [1] was “Δ” and the “Solubility, Chloroform 1% soln.” value [1] was “X”. For the same molecule, the “Solubility, Chloroform 5% soln.” value [1] was “X”, the “Solubility, Chloroform 10% soln.” value [1] was “X” and the “Solubility, Toluene 0.1% soln.” value [1] was “X”. The “Solubility, Toluene 1% soln.” value [1] was “X”, the “Solubility, Toluene 5% soln.” value [1] was “X” and the “Solubility, Toluene 10% soln.” value [1] was “X”.

With CCCCS(=O)(=O)[N-]c1cccc2cccnc12.CCCCS(=O)(=O)[N-]c1cccc2cccnc12.[Zn+2] [Compound N, Zinc bis-8-(n-butylsulfonamido)quinolinate] the “maximum PL wavelength” value [2] was 510 nm, the “Solubility, Chloroform 0.1% soln.” value [1] was “◯” and the “Solubility, Chloroform 1% soln.” value [1] was “Δ”. The “Solubility, Chloroform 5% soln.” value [1] was “X”, the “Solubility, Chloroform 10% soln.” value [1] was “X” and the “Solubility, Toluene 0.1% soln.” value [1] was “X”. For the same molecule, the “Solubility, Toluene 1% soln.” value [1] was “X”, the “Solubility, Toluene 5% soln.” value [1] was “X” and the “Solubility, Toluene 10% soln.” value [1] was “X”.
